Tests used:
potassium arsenate = compound: O=[As]([O-])(O)O.[K+] [potassium arsenate]; experiment: thermal stability z-score vs DMSO; higher = more thermally stabilized by treatment; settings: HeLa; arsenate concentration 1 mM
Protocol: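 Cellular thermal proteome profiling in HeLa cells treated with 1 mM arsenate for 1 h (DMSO pretreatment), heated to ten temperatures (37-66.3 °C). Soluble protein was quantified by TMT mass spectrometry relative to DMSO controls; the thermal stability score was transformed to a z-score; mean of n = 3 experiments.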

lipoamide = compound: NC(=O)CCCCC1CCSS1 [lipoamide]; experiment: as above; settings: HeLa, lipoamide concentration 100 µM
Protocol: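 Cellular thermal proteome profiling in HeLa cells. Cells were treated with 100 µM lipoamide for 1 h, with or without 1 mM arsenate for a further 1 h, then heated to ten temperatures (37-66.3 °C), and soluble protein was quantified by TMT mass spectrometry relative to 0.1% DMSO controls. The thermal stability score (sum of log2 fold changes minus the abundance score) was transformed to a z-score; mean of n = 3 experiments.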

[1] = arsenate co-treatment: 1 mM arsenate 1 h
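Note: each temperature applied for 3 min, abundance score taken as mean log2 fold change at the two lowest temperatures, z-score obtained by mean subtraction and division by SD.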

Sequence of UniProt P07437 (P07437 whole entry): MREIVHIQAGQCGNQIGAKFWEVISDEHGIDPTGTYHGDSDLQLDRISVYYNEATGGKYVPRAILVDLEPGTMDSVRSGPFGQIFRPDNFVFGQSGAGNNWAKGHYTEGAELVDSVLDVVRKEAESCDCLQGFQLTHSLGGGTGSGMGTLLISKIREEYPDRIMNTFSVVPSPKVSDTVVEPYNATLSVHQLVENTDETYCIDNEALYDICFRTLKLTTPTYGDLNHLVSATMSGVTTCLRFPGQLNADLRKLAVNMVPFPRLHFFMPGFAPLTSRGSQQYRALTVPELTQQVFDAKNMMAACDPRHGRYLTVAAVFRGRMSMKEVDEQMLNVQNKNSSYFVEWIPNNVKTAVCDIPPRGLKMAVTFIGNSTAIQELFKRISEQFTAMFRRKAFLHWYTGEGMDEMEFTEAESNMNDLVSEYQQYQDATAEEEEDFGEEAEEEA
Sequence of UniProt Q13509 (Q13509 whole entry): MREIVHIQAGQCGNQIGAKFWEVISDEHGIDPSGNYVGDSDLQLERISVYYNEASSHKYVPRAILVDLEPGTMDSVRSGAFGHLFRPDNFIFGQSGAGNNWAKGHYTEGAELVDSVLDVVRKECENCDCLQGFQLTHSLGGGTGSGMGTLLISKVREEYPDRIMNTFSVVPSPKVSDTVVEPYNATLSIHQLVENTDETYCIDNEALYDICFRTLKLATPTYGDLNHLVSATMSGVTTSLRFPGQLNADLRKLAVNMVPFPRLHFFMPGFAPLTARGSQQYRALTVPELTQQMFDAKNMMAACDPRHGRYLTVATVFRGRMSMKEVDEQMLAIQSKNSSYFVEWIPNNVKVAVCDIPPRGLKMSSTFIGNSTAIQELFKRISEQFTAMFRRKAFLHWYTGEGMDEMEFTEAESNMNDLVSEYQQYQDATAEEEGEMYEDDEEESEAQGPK
Sequence of UniProt P33981 (P33981 whole entry): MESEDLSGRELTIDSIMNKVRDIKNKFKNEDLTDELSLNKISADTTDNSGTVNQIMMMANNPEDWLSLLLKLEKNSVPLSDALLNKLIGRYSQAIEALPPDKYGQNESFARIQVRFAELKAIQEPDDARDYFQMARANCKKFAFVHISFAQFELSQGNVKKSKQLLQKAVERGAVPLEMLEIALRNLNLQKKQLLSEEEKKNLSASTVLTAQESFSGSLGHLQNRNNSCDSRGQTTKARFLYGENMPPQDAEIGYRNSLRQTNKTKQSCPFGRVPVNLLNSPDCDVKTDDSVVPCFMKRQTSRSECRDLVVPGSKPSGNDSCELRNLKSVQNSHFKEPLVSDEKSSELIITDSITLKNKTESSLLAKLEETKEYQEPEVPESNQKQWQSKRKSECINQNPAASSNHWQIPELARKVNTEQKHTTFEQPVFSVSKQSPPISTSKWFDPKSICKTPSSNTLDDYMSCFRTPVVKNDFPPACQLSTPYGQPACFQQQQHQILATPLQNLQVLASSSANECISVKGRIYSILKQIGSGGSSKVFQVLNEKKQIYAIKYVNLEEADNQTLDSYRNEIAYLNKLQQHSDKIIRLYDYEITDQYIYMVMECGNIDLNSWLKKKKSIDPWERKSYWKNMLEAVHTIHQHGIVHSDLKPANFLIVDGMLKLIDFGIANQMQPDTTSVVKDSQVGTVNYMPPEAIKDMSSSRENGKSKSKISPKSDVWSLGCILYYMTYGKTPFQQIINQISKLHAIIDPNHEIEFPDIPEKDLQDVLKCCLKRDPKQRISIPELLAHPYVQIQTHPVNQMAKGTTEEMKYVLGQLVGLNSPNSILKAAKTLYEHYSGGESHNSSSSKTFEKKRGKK
Sequence of UniProt Q9BTX7 (Q9BTX7 whole entry): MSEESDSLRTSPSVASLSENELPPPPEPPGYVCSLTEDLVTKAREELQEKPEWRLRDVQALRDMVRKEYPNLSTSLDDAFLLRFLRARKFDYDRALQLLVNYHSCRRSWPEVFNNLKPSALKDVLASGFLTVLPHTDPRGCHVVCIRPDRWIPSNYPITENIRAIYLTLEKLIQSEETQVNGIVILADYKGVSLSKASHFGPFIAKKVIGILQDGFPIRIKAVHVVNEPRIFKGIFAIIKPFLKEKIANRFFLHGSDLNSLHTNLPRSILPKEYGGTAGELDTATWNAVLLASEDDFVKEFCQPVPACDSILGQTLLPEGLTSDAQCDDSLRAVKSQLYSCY
Sequence of UniProt Q14166 (Q14166 whole entry): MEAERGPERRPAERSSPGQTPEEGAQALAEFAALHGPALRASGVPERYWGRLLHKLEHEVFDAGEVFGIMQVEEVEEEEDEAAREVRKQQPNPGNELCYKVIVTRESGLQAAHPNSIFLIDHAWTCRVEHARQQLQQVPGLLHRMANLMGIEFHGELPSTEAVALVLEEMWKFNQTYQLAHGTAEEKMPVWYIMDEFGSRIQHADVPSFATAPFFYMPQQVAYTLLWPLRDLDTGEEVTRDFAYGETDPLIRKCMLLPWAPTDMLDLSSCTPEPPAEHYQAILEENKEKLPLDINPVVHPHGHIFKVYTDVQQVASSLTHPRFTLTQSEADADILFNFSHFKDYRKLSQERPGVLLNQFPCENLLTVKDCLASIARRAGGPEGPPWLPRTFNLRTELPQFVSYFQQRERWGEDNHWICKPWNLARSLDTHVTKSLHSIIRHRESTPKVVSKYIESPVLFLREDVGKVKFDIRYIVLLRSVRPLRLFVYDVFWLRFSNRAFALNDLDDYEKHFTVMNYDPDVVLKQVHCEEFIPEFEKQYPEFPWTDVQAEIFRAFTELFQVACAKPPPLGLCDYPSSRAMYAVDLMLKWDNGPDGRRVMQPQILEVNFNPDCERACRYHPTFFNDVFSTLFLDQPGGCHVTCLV
Sequence of UniProt Q9BUF5 (Q9BUF5 whole entry): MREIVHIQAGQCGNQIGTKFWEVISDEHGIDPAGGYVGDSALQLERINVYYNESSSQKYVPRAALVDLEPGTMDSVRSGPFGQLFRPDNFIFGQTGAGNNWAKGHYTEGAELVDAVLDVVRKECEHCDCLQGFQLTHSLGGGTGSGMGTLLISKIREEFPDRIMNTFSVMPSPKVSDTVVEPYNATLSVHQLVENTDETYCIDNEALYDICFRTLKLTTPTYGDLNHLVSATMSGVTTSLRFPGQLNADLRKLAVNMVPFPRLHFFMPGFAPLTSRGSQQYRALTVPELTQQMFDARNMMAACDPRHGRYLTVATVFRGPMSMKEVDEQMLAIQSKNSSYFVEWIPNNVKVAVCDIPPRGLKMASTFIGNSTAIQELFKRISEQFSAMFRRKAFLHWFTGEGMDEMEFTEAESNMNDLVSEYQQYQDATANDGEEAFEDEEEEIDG
Sequence of UniProt Q6NXR4 (Q6NXR4 whole entry): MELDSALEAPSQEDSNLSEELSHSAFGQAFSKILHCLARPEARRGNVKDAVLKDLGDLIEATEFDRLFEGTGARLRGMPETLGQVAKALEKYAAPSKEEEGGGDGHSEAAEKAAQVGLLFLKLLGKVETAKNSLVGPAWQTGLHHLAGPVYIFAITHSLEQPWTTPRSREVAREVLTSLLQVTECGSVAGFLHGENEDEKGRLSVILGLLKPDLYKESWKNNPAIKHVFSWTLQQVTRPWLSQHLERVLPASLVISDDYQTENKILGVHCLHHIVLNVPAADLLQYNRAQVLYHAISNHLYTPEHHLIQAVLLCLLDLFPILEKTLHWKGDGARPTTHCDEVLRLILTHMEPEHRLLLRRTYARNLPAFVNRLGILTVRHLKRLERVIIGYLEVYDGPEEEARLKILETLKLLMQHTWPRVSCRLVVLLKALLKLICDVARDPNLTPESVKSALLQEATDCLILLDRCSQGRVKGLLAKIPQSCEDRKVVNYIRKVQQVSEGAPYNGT
Sequence of UniProt Q13885 (Q13885 whole entry): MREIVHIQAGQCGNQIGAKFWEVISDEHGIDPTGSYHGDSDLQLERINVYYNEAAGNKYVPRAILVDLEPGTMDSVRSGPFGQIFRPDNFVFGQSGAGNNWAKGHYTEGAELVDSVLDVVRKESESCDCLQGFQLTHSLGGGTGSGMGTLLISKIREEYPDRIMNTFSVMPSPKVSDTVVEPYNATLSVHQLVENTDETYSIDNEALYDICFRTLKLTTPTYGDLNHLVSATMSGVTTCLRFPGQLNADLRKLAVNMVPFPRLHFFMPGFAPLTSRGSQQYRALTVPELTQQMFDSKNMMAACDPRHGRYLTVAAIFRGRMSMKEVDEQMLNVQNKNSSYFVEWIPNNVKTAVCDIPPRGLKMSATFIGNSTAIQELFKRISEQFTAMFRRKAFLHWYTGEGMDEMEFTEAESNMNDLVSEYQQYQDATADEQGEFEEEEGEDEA
Sequence of UniProt Q8NG68 (Q8NG68 whole entry): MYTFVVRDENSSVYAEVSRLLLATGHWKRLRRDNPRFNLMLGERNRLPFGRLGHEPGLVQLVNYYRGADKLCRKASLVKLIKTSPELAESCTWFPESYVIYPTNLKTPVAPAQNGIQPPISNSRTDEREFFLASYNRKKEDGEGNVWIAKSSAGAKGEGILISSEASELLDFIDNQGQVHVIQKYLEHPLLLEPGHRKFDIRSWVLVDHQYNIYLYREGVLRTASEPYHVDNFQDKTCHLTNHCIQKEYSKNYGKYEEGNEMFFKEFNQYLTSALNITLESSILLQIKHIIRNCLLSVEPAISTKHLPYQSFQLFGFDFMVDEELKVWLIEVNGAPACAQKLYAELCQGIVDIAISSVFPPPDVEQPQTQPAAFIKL
Sequence of UniProt Q9BQE3 (Q9BQE3 whole entry): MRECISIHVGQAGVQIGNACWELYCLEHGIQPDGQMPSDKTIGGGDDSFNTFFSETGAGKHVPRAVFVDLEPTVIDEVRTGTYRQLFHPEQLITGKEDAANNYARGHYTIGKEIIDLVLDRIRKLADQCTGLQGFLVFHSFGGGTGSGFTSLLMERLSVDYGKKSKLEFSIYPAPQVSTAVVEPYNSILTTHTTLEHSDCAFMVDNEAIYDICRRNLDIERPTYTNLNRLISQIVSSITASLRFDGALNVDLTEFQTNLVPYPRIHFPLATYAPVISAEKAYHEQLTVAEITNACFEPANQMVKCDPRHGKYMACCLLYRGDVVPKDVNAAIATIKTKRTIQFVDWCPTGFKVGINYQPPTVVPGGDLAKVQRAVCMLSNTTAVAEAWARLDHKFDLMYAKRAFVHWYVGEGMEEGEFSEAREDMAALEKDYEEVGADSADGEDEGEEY

Target	thermal stability z-score (potassium arsenate)	thermal stability z-score (lipoamide; [1])	thermal stability z-score (lipoamide; arsenate co-treatment: none)
TTC27 (UniProt Q6P3X3)	0.24	-0.686	-0.257
TTC28 (UniProt Q96AY4)	-0.0135	-0.0855	-0.0784
TTC33 (UniProt Q6PID6)	-0.664	0.242	0.0666
TTC37 (UniProt Q6PGP7)	-0.0411	-0.601	-0.234
TTC38 (UniProt Q5R3I4)	1.01	1.43	1.43
TTC39C (UniProt Q8N584)	0.0855	0.0518	0.22
TTF2 (UniProt Q9UNY4)	-0.0154	-1.12	0.461
TTI1 (UniProt O43156)	1.78	0.86	1.21
TTI2 (UniProt Q6NXR4)	0.0606	-1.12	-0.63
TTK (UniProt P33981)	0.742	-0.85	-0.0774
TTL (UniProt Q8NG68)	-0.126	-0.0821	0.166
TTLL12 (UniProt Q14166)	-0.427	1.14	0.696
TTN (UniProt Q8WZ42)	0.121	0.609	0.578
TTPAL (UniProt Q9BTX7)	0.594	0.0476	0.0717
TTYH3 (UniProt Q9C0H2)	-0.648	0.027	0.0475
TUBA1C (UniProt Q9BQE3)	-0.265	-0.163	0.681
TUBA4A (UniProt P68366)	-0.681	-0.0177	-0.502
TUBB2A (UniProt Q13885)	0.692	0.383	0.458
TUBB3 (UniProt Q13509)	-0.447	0.871	0.131
TUBB6 (UniProt Q9BUF5)	0.532	-0.348	0.0923
TUBB (UniProt P07437)	-0.425	0.525	-0.284
TUBG1 (UniProt P23258)	0.415	0.135	-0.106
TUBGCP2 (UniProt Q9BSJ2)	0.27	-0.0736	-0.0416
TUBGCP3 (UniProt Q96CW5)	0.123	0.238	0.127
TUBGCP4 (UniProt Q9UGJ1)	0.141	-0.259	-0.815
TUBGCP5 (UniProt Q96RT8)	-0.119	-0.335	-0.139
TUBGCP6 (UniProt Q96RT7)	0.0497	0.0893	0.0666
TUFM (UniProt P49411)	-1.29	-2.05	-1.11
TULP3 (UniProt O75386)	-0.00993	-0.00846	0.00888
TUSC1 (UniProt Q2TAM9)	0.0895	0.515	0.368
